Measured values as given in publication PMC4303209, “A novel phosphatidylinositol 3-kinase (PI3K) inhibitor directs a potent FOXO-dependent, p53-independent cell cycle arrest phenotype characterized by the differential induction of a subset of FOXO-regulated genes” (Breast Cancer Research : BCR, 2014).

Test system: MCF-7 breast cancer cells
Test: Microarray gene expression analysis (Agilent whole human genome 4 x 44K; compound vs DMSO, LIMMA log2 fold change)
Assay type: cell-based

For `Cn1ncc2c(N3CCOCC3)nc(-c3cccc(O)c3)nc21` [ETP-45658], the “BCL11B log2FC” value (Apoptosis genes, Gene 64919) was 0.176, the “MRPL41 log2FC” value (Apoptosis genes, Gene 64975) was -0.545 and the “PINK1 log2FC” value (Apoptosis genes, Gene 65018) was 1.625. The “PRAMEF1 log2FC” value (Apoptosis genes, Gene 65121) was -0.072, the “PRAMEF2 log2FC” value (Apoptosis genes, Gene 65122) was 0.062 and the “UBE2Z log2FC” value (Apoptosis genes, Gene 65264) was -0.414. For the same compound, the “TMEM109 log2FC” value (Apoptosis genes, Gene 79073) was -0.626, the “CHAC1 log2FC” value (Apoptosis genes, Gene 79094) was -0.144 and the “TNIP2 log2FC” value (Apoptosis genes, Gene 79155) was -0.126. The “PLEKHF1 log2FC” value (Apoptosis genes, Gene 79156) was -0.469, the “THOC6 log2FC” value (Apoptosis genes, Gene 79228) was -0.373 and the “BCL2L14 log2FC” value (Apoptosis genes, Gene 79370) was -0.145. The “BIRC7 log2FC” value (Apoptosis genes, Gene 79444) was -0.043, the “ELMO3 log2FC” value (Apoptosis genes, Gene 79767) was -0.597 and the “SLTM log2FC” value (Apoptosis genes, Gene 79811) was 0.763. The “ZC3H12A log2FC” value (Apoptosis genes, Gene 80149) was -1.168, the “RNF34 log2FC” value (Apoptosis genes, Gene 80196) was -0.174 and the “ELL3 log2FC” value (Apoptosis genes, Gene 80237) was 1.095. The “CPEB4 log2FC” value (Apoptosis genes, Gene 80315) was 0.577, the “COL18A1 log2FC” value (Apoptosis genes, Gene 80781) was -0.387 and the “SGPP1 log2FC” value (Apoptosis genes, Gene 81537) was -0.165. The “SHARPIN log2FC” value (Apoptosis genes, Gene 81858) was -0.232, the “APH1B log2FC” value (Apoptosis genes, Gene 83464) was -0.559 and the “RASSF5 log2FC” value (Apoptosis genes, Gene 83593) was -0.091. For the same compound, the “SOX7 log2FC” value (Apoptosis genes, Gene 83595) was -0.214, the “BCL2L12 log2FC” value (Apoptosis genes, Gene 83596) was -0.236 and the “ITCH log2FC” value (Apoptosis genes, Gene 83737) was 0.721. For the same compound, the “CDCA7 log2FC” value (Apoptosis genes, Gene 83879) was 0.213, the “TATDN1 log2FC” value (Apoptosis genes, Gene 83940) was 0.636 and the “TM2D1 log2FC” value (Apoptosis genes, Gene 83941) was 0.088. For the same compound, the “OBSCN log2FC” value (Apoptosis genes, Gene 84033) was 0.277, the “TRAF7 log2FC” value (Apoptosis genes, Gene 84231) was -0.191 and the “RHBDD1 log2FC” value (Apoptosis genes, Gene 84236) was -0.533. The “TCHP log2FC” value (Apoptosis genes, Gene 84260) was 0.198, the “ZDHHC16 log2FC” value (Apoptosis genes, Gene 84287) was -0.471 and the “ING5 log2FC” value (Apoptosis genes, Gene 84289) was -0.932. The “AKT1S1 log2FC” value (Apoptosis genes, Gene 84335) was -0.939, the “CARD11 log2FC” value (Apoptosis genes, Gene 84433) was 0.083 and the “SYVN1 log2FC” value (Apoptosis genes, Gene 84447) was 0.455. For the same compound, the “ZC3H8 log2FC” value (Apoptosis genes, Gene 84524) was 1.519, the “FNDC1 log2FC” value (Apoptosis genes, Gene 84624) was -0.102 and the “CARD6 log2FC” value (Apoptosis genes, Gene 84674) was 0.198. For the same compound, the “HINT2 log2FC” value (Apoptosis genes, Gene 84681) was -0.153, the “BEX2 log2FC” value (Apoptosis genes, Gene 84707) was 0.736 and the “TNS4 log2FC” value (Apoptosis genes, Gene 84951) was -1.366. The “ATG4D log2FC” value (Apoptosis genes, Gene 84971) was -0.461, the “SCRT2 log2FC” value (Apoptosis genes, Gene 85508) was -0.569 and the “WNT3A log2FC” value (Apoptosis genes, Gene 89780) was -0.585. The “FGD3 log2FC” value (Apoptosis genes, Gene 89846) was 0.596, the “UNC5A log2FC” value (Apoptosis genes, Gene 90249) was -0.468 and the “BMF log2FC” value (Apoptosis genes, Gene 90427) was 2.299. For the same compound, the “MTDH log2FC” value (Apoptosis genes, Gene 92140) was 0.563, the “TIMM50 log2FC” value (Apoptosis genes, Gene 92609) was -0.439 and the “TP53INP1 log2FC” value (Apoptosis genes, Gene 94241) was 0.920. For the same compound, the “EGLN2 log2FC” value (Apoptosis genes, Gene 112398) was 0.272, the “EGLN3 log2FC” value (Apoptosis genes, Gene 112399) was -0.474 and the “PNMA5 log2FC” value (Apoptosis genes, Gene 114824) was 0.435. The “SLC5A11 log2FC” value (Apoptosis genes, Gene 115584) was 0.136, the “TWIST2 log2FC” value (Apoptosis genes, Gene 117581) was -0.722 and the “RFFL log2FC” value (Apoptosis genes, Gene 117584) was -0.488. For the same compound, the “FGD4 log2FC” value (Apoptosis genes, Gene 121512) was 0.637, the “RXFP2 log2FC” value (Apoptosis genes, Gene 122042) was -0.049 and the “DCUN1D3 log2FC” value (Apoptosis genes, Gene 123879) was -1.081. For the same compound, the “ACVR1C log2FC” value (Apoptosis genes, Gene 130399) was 0.259, the “IL31RA log2FC” value (Apoptosis genes, Gene 133396) was 0.071 and the “JMY log2FC” value (Apoptosis genes, Gene 133746) was 1.016. The “UNC5D log2FC” value (Apoptosis genes, Gene 137970) was 0.118, the “DYNLL2 log2FC” value (Apoptosis genes, Gene 140735) was -0.697 and the “PSMA8 log2FC” value (Apoptosis genes, Gene 143471) was 0.068. The “TICAM1 log2FC” value (Apoptosis genes, Gene 148022) was -0.493, the “BNIPL log2FC” value (Apoptosis genes, Gene 149428) was -0.061 and the “ZSWIM2 log2FC” value (Apoptosis genes, Gene 151112) was 0.088. For the same compound, the “DAB2IP log2FC” value (Apoptosis genes, Gene 153090) was -0.220, the “SLC5A8 log2FC” value (Apoptosis genes, Gene 160728) was -0.070 and the “PTCRA log2FC” value (Apoptosis genes, Gene 171558) was -0.425. The “HIGD2A log2FC” value (Apoptosis genes, Gene 192286) was -0.398, the “FLCN log2FC” value (Apoptosis genes, Gene 201163) was 0.968 and the “HIPK1 log2FC” value (Apoptosis genes, Gene 204851) was -0.153. For the same compound, the “UNC5B log2FC” value (Apoptosis genes, Gene 219699) was -0.570, the “RNF152 log2FC” value (Apoptosis genes, Gene 220441) was -0.038 and the “FGD2 log2FC” value (Apoptosis genes, Gene 221472) was -0.102. The “MPV17L log2FC” value (Apoptosis genes, Gene 255027) was -0.367, the “TMEM23 log2FC” value (Apoptosis genes, Gene 259230) was 0.357 and the “MAGI3 log2FC” value (Apoptosis genes, Gene 260425) was 0.325. The “BLOC1S2 log2FC” value (Apoptosis genes, Gene 282991) was 0.498, the “NRBP2 log2FC” value (Apoptosis genes, Gene 340371) was -0.074 and the “NANOS3 log2FC” value (Apoptosis genes, Gene 342977) was -0.124. The “AMIGO2 log2FC” value (Apoptosis genes, Gene 347902) was 0.532, the “C6orf120 log2FC” value (Apoptosis genes, Gene 387263) was -0.615 and the “GDF6 log2FC” value (Apoptosis genes, Gene 392255) was -0.089. The “MYO18A log2FC” value (Apoptosis genes, Gene 399687) was -0.470, the “PRAMEF3 log2FC” value (Apoptosis genes, Gene 401940) was -0.272 and the “ADIPOQ log2FC” value (Apoptosis genes, Gene 414149) was -0.245. The “PIM3 log2FC” value (Apoptosis genes, Gene 415116) was 0.693, the “LGALS7 log2FC” value (Apoptosis genes, Gene 653499) was -0.163 and the “CARD9 log2FC” value (Apoptosis genes, Gene 728489) was -0.457. For the same compound, the “PDCD6 log2FC” value (Apoptosis genes, Gene 728613) was -0.285, the “RRN3 log2FC” value (Apoptosis genes, Gene 730092) was 0.619 and the “CD24 log2FC” value (Apoptosis genes, Gene 100133941) was 0.127. For the same compound, the “ACVR1 log2FC” value (Gene 90, cell cycle genes) was 0.534, the “ACVR1B log2FC” value (Gene 91, cell cycle genes) was -0.563 and the “ADCYAP1 log2FC” value (Gene 116, cell cycle genes) was 0.068. The “AHR log2FC” value (Gene 196, cell cycle genes) was 0.995, the “AIF1 log2FC” value (Gene 199, cell cycle genes) was -0.077 and the “AK1 log2FC” value (Gene 203, cell cycle genes) was -0.344. The “AKT1 log2FC” value (Gene 207, cell cycle genes) was -0.608, the “AKT2 log2FC” value (Gene 208, cell cycle genes) was -0.554 and the “ALOX15B log2FC” value (Gene 247, cell cycle genes) was -0.102. The “ANK3 log2FC” value (Gene 288, cell cycle genes) was 0.532, the “ANXA1 log2FC” value (Gene 301, cell cycle genes) was 0.991 and the “ANXA11 log2FC” value (Gene 311, cell cycle genes) was -0.496. For the same compound, the “APBB1 log2FC” value (Gene 322, cell cycle genes) was 0.078, the “APBB2 log2FC” value (Gene 323, cell cycle genes) was -0.357 and the “APEX1 log2FC” value (Gene 328, cell cycle genes) was 0.266. For the same compound, the “BIRC2 log2FC” value (Gene 329, cell cycle genes) was 0.082, the “APP log2FC” value (Gene 351, cell cycle genes) was 0.379 and the “ARF6 log2FC” value (Gene 382, cell cycle genes) was -0.682. The “RHOB log2FC” value (Gene 388, cell cycle genes) was -0.133, the “RHOC log2FC” value (Gene 389, cell cycle genes) was -0.491 and the “ARL2 log2FC” value (Gene 402, cell cycle genes) was -0.140. For the same compound, the “ARL3 log2FC” value (Gene 403, cell cycle genes) was 0.192, the “ASNS log2FC” value (Gene 440, cell cycle genes) was -0.404 and the “BACH1 log2FC” value (Gene 571, cell cycle genes) was 0.774. For the same compound, the “BARD1 log2FC” value (Gene 580, cell cycle genes) was 0.487, the “BBS4 log2FC” value (Gene 585, cell cycle genes) was 1.207 and the “CCND1 log2FC” value (Gene 595, cell cycle genes) was -1.564. For the same compound, the “BCL2 log2FC” value (Gene 596, cell cycle genes) was -0.310, the “BCL2L1 log2FC” value (Gene 598, cell cycle genes) was -0.991 and the “BCR log2FC” value (Gene 613, cell cycle genes) was -0.914. The “BID log2FC” value (Gene 637, cell cycle genes) was -0.095, the “BMP2 log2FC” value (Gene 650, cell cycle genes) was -0.038 and the “BMP7 log2FC” value (Gene 655, cell cycle genes) was -0.344. For the same compound, the “DST log2FC” value (Gene 667, cell cycle genes) was 0.571, the “BRCA1 log2FC” value (Gene 672, cell cycle genes) was 0.792 and the “BRDT log2FC” value (Gene 676, cell cycle genes) was 0.068. For the same compound, the “BUB1 log2FC” value (Gene 699, cell cycle genes) was 0.803, the “CALM1 log2FC” value (Gene 801, cell cycle genes) was 0.216 and the “CALR log2FC” value (Gene 811, cell cycle genes) was -0.081. The “CAMK2A log2FC” value (Gene 815, cell cycle genes) was 0.024, the “CAMK2D log2FC” value (Gene 817, cell cycle genes) was 0.613 and the “CAMK2G log2FC” value (Gene 818, cell cycle genes) was 0.874. The “CASP2 log2FC” value (Gene 835, cell cycle genes) was -0.918, the “CAV2 log2FC” value (Gene 858, cell cycle genes) was 0.696 and the “RUNX3 log2FC” value (Gene 864, cell cycle genes) was -0.494. For the same compound, the “CCNA2 log2FC” value (Gene 890, cell cycle genes) was -0.047, the “CCNB1 log2FC” value (Gene 891, cell cycle genes) was 0.072 and the “CCNC log2FC” value (Gene 892, cell cycle genes) was 0.257. The “CCND2 log2FC” value (Gene 894, cell cycle genes) was -1.006, the “CCND3 log2FC” value (Gene 896, cell cycle genes) was -0.730 and the “CCNE1 log2FC” value (Gene 898, cell cycle genes) was -0.471. The “CCNG1 log2FC” value (Gene 900, cell cycle genes) was 0.908, the “CCNG2 log2FC” value (Gene 901, cell cycle genes) was 3.913 and the “CD28 log2FC” value (Gene 940, cell cycle genes) was 0.087. For the same compound, the “CDC5L log2FC” value (Gene 988, cell cycle genes) was 1.004, the “CDC6 log2FC” value (Gene 990, cell cycle genes) was -0.800 and the “CDC20 log2FC” value (Gene 991, cell cycle genes) was -0.346. For the same compound, the “CDC25A log2FC” value (Gene 993, cell cycle genes) was -1.970.
